Results reported in US20260069588A1, “VEPDEGESTRANT FOR USE IN TREATING CANCER” (Arvinas Operation, Inc., priority 2022, published 2026).

Experiment: Phase 1 single agent studies in Japanese and Chinese participants (C4891016, C4891018): adverse events
[1] = TEAE treatment related, 200 mg, N = 15

Description: TEAE's from participants in both studies have been combined and are described below.

Compound: O=C1CC[C@H](N2Cc3cc(N4CCN(CC5CCN(c6ccc([C@@H]7c8ccc(O)cc8CC[C@@H]7c7ccccc7)cc6)CC5)CC4)ccc3C2=O)C(=O)N1 [Compound A, (S)-3-(5-(4-((1-(4-((1R,2S)-6-hydroxy-2-phenyl-1,2,3,4-tetrahydronaphthalen-1-yl)phenyl)piperidin-4-yl)methyl)piperazin-1-yl)-1-oxoisoindolin-2-yl)piperidine-2,6-dione]
- Gastrointestinal disorders, Grade 3 [1]: 0 n (%)
- Gastrointestinal disorders, Grade 4 [1]: 0 n (%)
- Gastrointestinal disorders, Grade 5 [1]: 0 n (%)
- Gastrointestinal disorders, Missing or Unknown [1]: 0 n (%)
- Gastrointestinal disorders, Total [1]: 4 (26.7) n (%)
- General disorders and administration site conditions, Grade 1 [1]: 0 n (%)
- General disorders and administration site conditions, Grade 2 [1]: 1 (6.7) n (%)
- General disorders and administration site conditions, Grade 3 [1]: 0 n (%)
- General disorders and administration site conditions, Grade 4 [1]: 0) n (%)
- General disorders and administration site conditions, Grade 5 [1]: 0 n (%)
- General disorders and administration site conditions, Missing or Unknown [1]: 0 n (%)
- General disorders and administration site conditions, Total [1]: 1 (6.7) n (%)
- Headache, Grade 1 [1]: 1 (6.7) n (%)
- Headache, Grade 2 [1]: 0 n (%)
- Headache, Grade 3 [1]: 0 n (%)
- Headache, Grade 4 [1]: 0 n (%)
- Headache, Grade 5 [1]: 0 n (%)
- Headache, Missing or Unknown [1]: 0 n (%)
- Headache, Total [1]: 1 (6.7) n (%)
- Hyperuricemia, Grade 1 [1]: 2 (13.3) n (%)
- Hyperuricemia, Grade 2 [1]: 0 n (%)
- Hyperuricemia, Grade 3 [1]: 0 n (%)
- Hyperuricemia, Grade 4 [1]: 0 n (%)
- Hyperuricemia, Grade 5 [1]: 0 n (%)
- Hyperuricemia, Missing or Unknown [1]: 0 n (%)
- Hyperuricemia, Total [1]: 2 (13.3) n (%)
- Hypokalemia, Grade 1 [1]: 1 (6.7) n (%)
- Hypokalemia, Grade 2 [1]: 0 n (%)
- Hypokalemia, Grade 3 [1]: 0 n (%)
- Hypokalemia, Grade 4 [1]: 0 n (%)
- Hypokalemia, Grade 5 [1]: 0 n (%)
- Hypokalemia, Missing or Unknown [1]: 0 n (%)
- Hypokalemia, Total [1]: 1 (6.7) n (%)
- Hypophosphatasemia, Grade 1 [1]: 1 (6.7) n (%)
- Hypophosphatasemia, Grade 2 [1]: 0 n (%)
- Hypophosphatasemia, Grade 3 [1]: 0 n (%)
- Hypophosphatasemia, Grade 4 [1]: 0 n (%)
- Hypophosphatasemia, Grade 5 [1]: 0 n (%)
- Hypophosphatasemia, Missing or Unknown [1]: 0 n (%)
- Hypophosphatasemia, Total [1]: 1 (6.7) n (%)
- Investigations, Grade 1 [1]: 4 (26.7) n (%)
- Investigations, Grade 2 [1]: 1 (6.7) n (%)
- Investigations, Grade 3 [1]: 2 (13.3) n (%)
- Investigations, Grade 4 [1]: 0 n (%)
- Investigations, Grade 5 [1]: 0 n (%)
- Investigations, Missing or Unknown [1]: 0 n (%)
- Investigations, Total [1]: 7 (46.7) n (%)
- Metabolism and nutrition disorders, Grade 1 [1]: 3 (20.0) n (%)
- Metabolism and nutrition disorders, Grade 2 [1]: 0 n (%)
- Metabolism and nutrition disorders, Grade 3 [1]: 0 n (%)
- Metabolism and nutrition disorders, Grade 4 [1]: 0 n (%)
- Metabolism and nutrition disorders, Grade 5 [1]: 0) n (%)
- Metabolism and nutrition disorders, Missing or Unknown [1]: 0 n (%)
- Metabolism and nutrition disorders, Total [1]: 3 (20.0) n (%)
- Musculoskeletal and connective tissue disorders, Grade 1 [1]: 1 (6.7) n (%)
- Musculoskeletal and connective tissue disorders, Grade 2 [1]: 0) n (%)
- Musculoskeletal and connective tissue disorders, Grade 3 [1]: 0 n (%)
- Musculoskeletal and connective tissue disorders, Grade 4 [1]: 0 n (%)
- Musculoskeletal and connective tissue disorders, Grade 5 [1]: 0 n (%)
- Musculoskeletal and connective tissue disorders, Missing or Unknown [1]: 0 n (%)
- Musculoskeletal and connective tissue disorders, Total [1]: 1 (6.7) n (%)
- Nausea, Grade 1 [1]: 1 (6.7) n (%)
- Nausea, Grade 2 [1]: 0 n (%)
- Nausea, Grade 3 [1]: 0 n (%)
- Nausea, Grade 4 [1]: 0 n (%)
- Nausea, Grade 5 [1]: 0 n (%)
- Nausea, Missing or Unknown [1]: 0 n (%)
- Nausea, Total [1]: 1 (6.7) n (%)
- Nervous system disorders, Grade 1 [1]: 2 (13.3) n (%)
- Nervous system disorders, Grade 2 [1]: 0 n (%)
- Nervous system disorders, Grade 3 [1]: 0 n (%)
- Nervous system disorders, Grade 4 [1]: 0 n (%)
- Nervous system disorders, Grade 5 [1]: 0 n (%)
- Nervous system disorders, Missing or Unknown [1]: 0 n (%)
- Nervous system disorders, Total [1]: 2 (13.3) n (%)
- Neutrophil count decreased, Grade 1 [1]: 1 (6.7) n (%)
- Neutrophil count decreased, Grade 2 [1]: 0 n (%)
- Neutrophil count decreased, Grade 3 [1]: 1 (6.7) n (%)
- Neutrophil count decreased, Grade 4 [1]: 0 n (%)
- Neutrophil count decreased, Grade 5 [1]: 0 n (%)
- Neutrophil count decreased, Missing or Unknown [1]: 0 n (%)
- Neutrophil count decreased, Total [1]: 2 (13.3) n (%)
- Pain, Grade 1 [1]: 0 n (%)
- Pain, Grade 2 [1]: 1 (6.7) n (%)
- Pain, Grade 3 [1]: 0 n (%)
- Pain, Grade 4 [1]: 0 n (%)
- Pain, Grade 5 [1]: 0 n (%)
- Pain, Missing or Unknown [1]: 0 n (%)
- Pain, Total [1]: 1 (6.7) n (%)
- Participants with events, Grade 1 [1]: 7 (46.7) n (%)
- Participants with events, Grade 2 [1]: 2 (13.3) n (%)
- Participants with events, Grade 3 [1]: 2 (13.3) n (%)
- Participants with events, Grade 4 [1]: 0 n (%)
- Participants with events, Grade 5 [1]: 0 n (%)
- Participants with events, Missing or Unknown [1]: 0 n (%)
- Participants with events, Total [1]: 11 (73.3) n (%)
- Platelet count decreased, Grade 1 [1]: 1 (6.7) n (%)
- Platelet count decreased, Grade 2 [1]: 0 n (%)
- Platelet count decreased, Grade 3 [1]: 0 n (%)
- Platelet count decreased, Grade 4 [1]: 0 n (%)
- Platelet count decreased, Grade 5 [1]: 0) n (%)
- Platelet count decreased, Missing or Unknown [1]: 0 n (%)
- Platelet count decreased, Total [1]: 1 (6.7) n (%)
- Pruritus, Grade 1 [1]: 1 (6.7) n (%)
- Pruritus, Grade 2 [1]: 0 n (%)
- Pruritus, Grade 3 [1]: 0 n (%)
- Pruritus, Grade 4 [1]: 0) n (%)
- Pruritus, Grade 5 [1]: 0 n (%)
- Pruritus, Missing or Unknown [1]: 0 n (%)
- Pruritus, Total [1]: 1 (6.7) n (%)
- Sinus bradycardia, Grade 1 [1]: 1 (6.7) n (%)
- Sinus bradycardia, Grade 2 [1]: 0 n (%)
- Sinus bradycardia, Grade 3 [1]: 0 n (%)
- Sinus bradycardia, Grade 4 [1]: 0 n (%)
- Sinus bradycardia, Grade 5 [1]: 0 n (%)
- Sinus bradycardia, Missing or Unknown [1]: 0 n (%)
- Sinus bradycardia, Total [1]: 1 (6.7) n (%)
- Skin and subcutaneous tissue disorders, Grade 1 [1]: 2 (13.3) n (%)
- Skin and subcutaneous tissue disorders, Grade 2 [1]: 0 n (%)
- Skin and subcutaneous tissue disorders, Grade 3 [1]: 0 n (%)
- Skin and subcutaneous tissue disorders, Grade 4 [1]: 0 n (%)
- Skin and subcutaneous tissue disorders, Grade 5 [1]: 0 n (%)
- Skin and subcutaneous tissue disorders, Missing or Unknown [1]: 0 n (%)
- Skin and subcutaneous tissue disorders, Total [1]: 2 (13.3) n (%)
- White blood cell count decreased, Grade 1 [1]: 0 n (%)
- White blood cell count decreased, Grade 2 [1]: 0 n (%)
- White blood cell count decreased, Grade 3 [1]: 1 (6.7) n (%)
- White blood cell count decreased, Grade 4 [1]: 0 n (%)
- White blood cell count decreased, Grade 5 [1]: 0 n (%)
- White blood cell count decreased, Missing or Unknown [1]: 0 n (%)
- White blood cell count decreased, Total [1]: 1 (6.7) n (%)
- discontinuations due to TEAE (in vivo): No discontinuations reported due to TEAE
